For data set [1], the system named is three cancer cell lines (MCF-7, SMMC-7721, HeLa). Briefly: MTT cytotoxic assay, summary statements over the three cancer cell lines. The class given is cell-based, human. Particulars: for cytotoxic activity against the three cancer cell lines (in words): MCF-7, SMMC-7721, HeLa; for IC50: Homo sapiens, at least one of MCF-7, SMMC-7721, HeLa, strong cytotoxicity, read-out: IC50 against at least one cancer cell line. How it is done: (§1) All the compounds (1–3, 4a–o) were evaluated for their in vitro cytotoxic activity against three cancer cell lines including human breast cancer cell line (MCF-7), human hepatocarcinoma cell line (SMMC-7721), human cervical carcinoma cell line (HeLa), and a noncancerous human hepatocyte cell line (LO2) using the MTT assay method. An anticancer drug etoposide (VP-16) was co-assayed as the positive control. The results of the test compounds shown as IC50 values (concentration required to inhibit tumor cell proliferation by 50%), are listed in Table 1.
(§2) The in vitro cytotoxic activities of the quinoxaline derivatives of DAA were evaluated against a human breast cancer cell line (MCF-7), human hepatocarcinoma cell line (SMMC-7721), human cervical carcinoma cell line (HeLa) and noncancerous human hepatocyte cells (LO2) via the MTT colorimetric method. Briefly, different tumor cells were grown in DMEM supplemented with 10% fetal bovine serum, penicillin (100 U/mL), and streptomycin (50 μg/mL). Cells were harvested at the log phase of growth and seeded in 96-well plates (100 μL/well at a density of 2 × 10^5 cells/mL). After 24 h of incubation at 37 °C and 5% CO2 to allow for cell attachment, cultures were exposed to various concentrations of the isolated compounds for 48 h. Finally, the MTT solution (2.5 mg/mL in PBS) was added (40 μL/well). Plates were further incubated for 4 h at 37 °C, and the formazan crystals formed were dissolved by adding 150 μL/well of DMSO. Absorption at 570 nm was measured with an ELISA plate reader. The results were expressed as IC50 values with standard deviations, which were defined as the concentrations at which a 50% survival of the cells was discerned. Etoposide (VP-16) was co-assayed as the positive control.
A general note: Tetrazolium assays rely on reduction of a dye to a coloured formazan, in cell work by metabolically active cells.

For data set [2], the system named is human cervical carcinoma cell line (HeLa). Briefly: MTT cytotoxic assay, HeLa. The class given is cell-based. Particulars: 48 h exposure. Here is the method: as §1, §2
Data set [3] has as its system human breast cancer cell line (MCF-7). Briefly: MTT cytotoxic assay, MCF-7. The data set is classed as cell-based. As to conditions: MCF7, 48 h exposure. How it is done:
as §1, §2

For data set [4], the system named is noncancerous human hepatocyte cells (LO2). Briefly: MTT cytotoxic assay, LO2. The class given is cell-based. As to conditions: 48 h exposure, noncancerous hepatocytes. How it is done: as §1, §2
Data set [5] has as its system human hepatocarcinoma cell line (SMMC-7721). Briefly: MTT cytotoxic assay, SMMC-7721. The class given is cell-based. Particulars: 48 h exposure. How it is done:
as §1, §2

By IC50 is commonly meant the concentration that inhibits the measured activity by half. Regarding `COC(=O)[C@]1(C)CCC[C@]2(C)c3cc(Br)c4nc(Cn5cnnn5)c(Cn5cnnn5)nc4c3CCC12` (stereo partly drawn) [Compound 4n, Methyl 12-bromo-2′,3′-bis((1H-tetrazol-1-yl)methyl)-13,14-pyrazinyl-deisopropyl-dehydroabietate], the “cytotoxic activity against the three cancer cell lines (in words)” value (shortened to “cytotoxic activity”) in data set [1] is recorded as “moderate cytotoxic activity”. Moreover, the IC50 in data set [2] is 13.3 ± 2.71 µM; in data set [3], 15.8 ± 0.81 µM; in data set [4] it was over 50 µM; in data set [5], 10.9 ± 1.68 µM.

With `CCCN(CCC)Cc1nc2c(Br)cc3c(c2nc1CN(CCC)CCC)CCC1[C@](C)(C(=O)OC)CCC[C@]31C` (stereo partly drawn) [Compound 4c, Methyl 12-bromo-2′,3′-bis((dipropylamino)methyl)-13,14-pyrazinyldeisopropyl-dehydroabietate], the IC50 in data set [2] was 8.67 ± 0.65 µM; in data set [3], 21 ± 1.27 µM; in data set [4], over 50 µM; in data set [5], 11 ± 0.58 µM.

Take `COC(=O)[C@]1(C)CCC[C@]2(C)c3cc(Br)c4nc(CN5CCCC5)c(CN5CCCC5)nc4c3CCC12` (stereo partly drawn) [Compound 4e, Methyl 12-bromo-2′,3′-bis(pyrrolidin-1-ylmethyl)-13,14-pyrazinyldeisopropyl-dehydroabietate]: in data set [1], the “cytotoxic activity” value is on record as “moderate cytotoxic activity”. Also, the IC50 in data set [2] was 12.8 ± 1.26 µM; in data set [3], 20.4 ± 1.51 µM; in data set [4], over 50 µM; in data set [5] it was 18.6 ± 2.37 µM.

Take `COC(=O)[C@]1(C)CCC[C@]2(C)c3cc(Br)c(N)c(N)c3CCC12` (stereo partly drawn) [Compound 2]: the “cytotoxicity to HeLa and/or SMMC-7721 cell lines (in words)” value in data set [1] is “mild cytotoxicity”. The IC50 in data set [2] is 43.3 ± 3.26 µM; in data set [3], over 50 µM; in data set [4], over 50 µM; in data set [5], over 50 µM.

Regarding `COC(=O)[C@]1(C)CCC[C@]2(C)c3cc(Br)c4nc(CN5CCCCCC5)c(CN5CCCCCC5)nc4c3CCC12` (stereo partly drawn) [Compound 4g, Methyl 2′,3′-bis(azepan-1-ylmethyl)-12-bromo-13,14-pyrazinyldeisopropyl-dehydroabietate], the “cytotoxic activity” value in data set [1] was “weak activity”. Also, the IC50 is 32 ± 4.21 µM in data set [2], over 50 µM in data set [3], over 50 µM in data set [4] and 27.9 ± 2.91 µM in data set [5].

Consider `COC(=O)[C@]1(C)CCC[C@]2(C)c3cc(Br)c4nc(CN5CCN(C)CC5)c(CN5CCN(C)CC5)nc4c3CCC12` (stereo partly drawn) [Compound 4j, Methyl 12-bromo-2′,3′-bis((4-methylpiperazin-1-yl)methyl)-13,14-pyrazinyl-deisopropyl-dehydroabietate], for which the IC50 was under 10 µM in data set [1]; 6.62 ± 0.59 µM in data set [2]; 12.2 ± 0.75 µM in data set [3]; 29.5 ± 3.61 µM in data set [4]; 8.03 ± 0.7 µM in data set [5].

In the case of `COC(=O)[C@]1(C)CCC[C@]2(C)c3cc(Br)c4nc(CN5CCOCC5)c(CN5CCOCC5)nc4c3CCC12` (stereo partly drawn) [Compound 4h, Methyl 12-bromo-2′,3′-bis(morpholinomethyl)-13,14-pyrazinyldeisopropyl-dehydroabietate], the IC50 was determined as 9.67 ± 1.13 µM in data set [2], 12.3 ± 1.03 µM in data set [3], 36.6 ± 3.12 µM in data set [4] and 16.3 ± 1.85 µM in data set [5].

`CCCCN(CCCC)Cc1nc2c(Br)cc3c(c2nc1CN(CCCC)CCCC)CCC1[C@](C)(C(=O)OC)CCC[C@]31C` (stereo partly drawn) [Compound 4d, Methyl 12-bromo-2′,3′-bis((dibutylamino)methyl)-13,14-pyrazinyldeisopropyl-dehydroabietate]: the “cytotoxic activity” value in data set [1] was “weak activity”. Also, the IC50 is 25.3 ± 3.01 µM in data set [2], 28.1 ± 0.92 µM in data set [3], over 50 µM in data set [4] and 32.7 ± 2.69 µM in data set [5].

`CCN1CCN(Cc2nc3c(Br)cc4c(c3nc2CN2CCN(CC)CC2)CCC2[C@](C)(C(=O)OC)CCC[C@]42C)CC1` (stereo partly drawn) [Compound 4k, Methyl 12-bromo-2′,3′-bis((4-ethylpiperazin-1-yl)methyl)-13,14-pyrazinyl-deisopropyl-dehydroabietate]: in data set [1], the “cytotoxic activity” value is “moderate cytotoxic activity”. In addition, the IC50 is 13.5 ± 2.21 µM in data set [2], 38.7 ± 2.87 µM in data set [3], over 50 µM in data set [4] and 26.4 ± 3.73 µM in data set [5].

For `COC(=O)[C@]1(C)CCC[C@]2(C)c3cc(Br)c4nc(CBr)c(CBr)nc4c3CCC12` (stereo partly drawn) [Compound 3], the “cytotoxicity to HeLa and/or SMMC-7721 cell lines (in words)” value in data set [1] is recorded as “mild cytotoxicity”. Besides, the IC50 in data set [2] is 37.7 ± 3.75 µM; in data set [3], over 50 µM; in data set [4], over 50 µM; in data set [5] it was 45.8 ± 5.28 µM.

With `COc1cc([C@@H]2c3cc4c(cc3[C@@H](O[C@@H]3O[C@@H]5CO[C@@H](C)O[C@H]5[C@H](O)[C@H]3O)[C@H]3COC(=O)[C@H]23)OCO4)cc(OC)c1O` [Etoposide, reference compound], the IC50 came out at 0.87 ± 0.16 µM in data set [2], 0.73 ± 0.07 µM in data set [3], 8.89 ± 0.38 µM in data set [4] and 0.69 ± 0.18 µM in data set [5].

Take `CC(C)c1ccc2c(c1)CC[C@H]1[C@](C)(C(=O)O)CCC[C@]21C` [Compound 1, Dehydroabietic acid]: the 50% inhibitory concentration (IC50) in data set [2], in data set [3], in data set [4] and in data set [5] was over 50 µM throughout.

With `COC(=O)[C@]1(C)CCC[C@]2(C)c3cc(Br)c4nc(Cn5ccnc5)c(Cn5ccnc5)nc4c3CCC12` (stereo partly drawn) [Compound 4l, Methyl 12-bromo-2′,3′-bis((1H-imidazol-1-yl)methyl)-13,14-pyrazinyl-deisopropyl-dehydroabietate], the “cytotoxic activity” value in data set [1] was “moderate cytotoxic activity”. Further, the IC50 in data set [2] was 12.7 ± 1.35 µM; in data set [3], 22.8 ± 3.21 µM; in data set [4] it was over 50 µM; in data set [5], 15.3 ± 2.06 µM.

With `COC(=O)[C@]1(C)CCC[C@]2(C)c3cc(Br)c4nc(CN5CCNCC5)c(CN5CCNCC5)nc4c3CCC12` (stereo partly drawn) [Compound 4i, Methyl 12-bromo-2′,3′-bis(piperazin-1-ylmethyl)-13,14-pyrazinyldeisopropyl-dehydroabietate], the IC50 in data set [1] is under 10 µM; in data set [2] it was 5.05 ± 0.72 µM; in data set [3] it was 5.89 ± 0.56 µM; in data set [4], 21.9 ± 2.7 µM; in data set [5] it was 4.32 ± 0.64 µM.

Regarding `COC(=O)[C@]1(C)CCC[C@]2(C)c3cc(Br)c4nc(CN(C)C)c(CN(C)C)nc4c3CCC12` (stereo partly drawn) [Compound 4a, Methyl 12-bromo-2′,3′-bis((dimethylamino)methyl)-13,14-pyrazinyldeisopropyl-dehydroabietate], the IC50 is 2.08 ± 0.43 µM in data set [2], 2.36 ± 0.29 µM in data set [3], 15.7 ± 0.65 µM in data set [4] and 1.65 ± 0.22 µM in data set [5].

For the molecule `COC(=O)[C@]1(C)CCC[C@]2(C)c3cc(Br)c4nc(Cn5ncnn5)c(Cn5ncnn5)nc4c3CCC12` (stereo partly drawn) [Compound 4o, Methyl 12-bromo-2′, 3′-bis((2H-tetrazol-2-yl)methyl)-13,14-pyrazinyl-deisopropyl-dehydroabietate], the “cytotoxic activity” value in data set [1] is recorded as “moderate cytotoxic activity”. Moreover, the IC50 in data set [2] is 20.5 ± 3.12 µM; in data set [3], 24.4 ± 1.69 µM; in data set [4], over 50 µM; in data set [5] it was 16.9 ± 1.95 µM.

(Values after publication PMC6152277, “Synthesis and Evaluation of New Quinoxaline Derivatives of Dehydroabietic Acid as Potential Antitumor Agents” (Molecules : A Journal of Synthetic Chemistry and Natural …, 2017).)
